These compounds were tested on neutrophils (PMA-stimulated NETosis) (assay: Quantification of NETosis using SYTOX Green). Details: Apocynin at 100 uM; NET-forming cells as percentage of total cells.
Assay type: cell-based, human
Source text: Semi-automated analysis of both phase and fluorescence images of SYTOX Green-stained neutrophils used a MATLAB algorithm. Total cells were counted by scoring phase standard deviation and radial symmetry. NETosis was classified in cells by measuring the DNA area in the fluorescence image and comparing with a select internal training set for each experiment. Unstimulated cells and PMA-stimulated, pyocyanin-inhibited cells served as negative controls. PMA-stimulated cells served as a positive control. NET-forming cells are presented as a percentage of total cells.

SMILES	% NETosis [%]
COc1cc(C(C)=O)ccc1O [Apocynin, reference compound]	29.06

Same assay, conditions: Homo sapiens, Neutrophil; NETosis, SYTOX Green-stained neutrophils, PMA-stimulated

SMILES	IC50 [nM]
COc1ccc(-c2cc3n(n2)Cc2ccc(NC(C)=O)cc2OC3)cc1 [Example 3, N-(2-(4-Methoxyphenyl)-4H,10H-benzo[f]pyrazolo[5,1-c][1,4]oxazepin-7-yl)acetamide]	520 ± 60
COc1cccc(-c2cc3n(n2)Cc2ccc(NC(C)=O)cc2OC3)c1 [Example 2, N-(2-(3-Methoxyphenyl)-4H,10H-benzo[f]pyrazolo[5,1-c][1,4]oxazepin-7-yl)acetamide]	900 ± 200
CC#CCC(=O)Nc1cccc(-c2cc3n(n2)Cc2ccc(NC(C)=O)cc2OC3)c1 [Example 4, N-(3-(7-acetamido-4H,10H-benzo[f]pyrazolo[5,1-c][1,4]oxazepin-2-yl)phenyl)pent-3-ynamide]	800 ± 20
CC(=O)Nc1ccc2c(c1)OCc1cc(-c3cccc(C#CCCCO)c3)nn1C2 [Example 5, N-(2-(3-(5-hydroxypent-1-yn-1-yl)phenyl)-4H,10H-benzo[f]pyrazolo[5,1-c][1,4]oxazepin-7-yl)acetamide]	3000 ± 1000

Same assay, conditions: compound at 5 uM; NET-forming cells as percentage of total cells; vehicle 79.66, untreated 14.54

SMILES	5 uM (% NETosis) [%]
C#CCNc1ccc2c(c1)OCc1cc(-c3ccccc3)nn1C2 [Example 41]	73.65
Clc1[nH]ncc1Nc1ccc2c(c1)OCc1cc(-c3ccccc3)nn1C2 [Example 28, N-(5-chloro-1H-pyrazol-4-yl)-2-phenyl-4H,10H-benzo[f]pyrazolo[5,1-c][1,4]oxazepin-7-amine]	44.49
CC(=O)Nc1ccc2c(c1)OCc1cc(-c3ccc(CN(C)C)cc3)nn1C2 [Example 107]	85.67
CC(=O)Nc1ccc2c(c1)OCc1cc(-c3ccc(F)cc3C#N)nn1C2 [Example 45]	56.95
COc1ncc(-c2cc3n(n2)Cc2ccc(NC(C)=O)cc2OC3)cn1 [Example 77]	86.51
c1ccc(-c2cc3n(n2)Cc2ccc(NC4CCC4)cc2OC3)cc1 [Example 23]	86.22
CNC(=O)c1ccc(F)c(-c2cc3n(n2)Cc2ccc(NC(C)=O)cc2OC3)c1 [Example 99]	84.59
CC(=O)Nc1ccc2c(c1)OCc1cc(-c3cccc4c3CN(C)C4=O)nn1C2 [Example 90]	78.83
CC(=O)Nc1ccc2c(c1)OCc1cc(-c3ccc4c(c3)NC(=O)C4)nn1C2 [Example 84]	42.93
Cn1nccc1Nc1ccc2c(c1)OCc1cc(-c3ccccc3)nn1C2 [Example 32]	76.40
CC(=O)Nc1ccc2c(c1)OCc1cc(-c3ccnc4[nH]ccc34)nn1C2 [Example 91]	77.13
CC(=O)Nc1ccc2c(c1)OCc1cc(-c3ccccc3NS(C)(=O)=O)nn1C2 [Example 88]	71.64
N#CCn1cc(-c2ccc3c(c2)OCc2cc(-c4ccccc4)nn2C3)cn1 [Example 12, 2-(4-(2-phenyl-4H,10H-benzo[f]pyrazolo[5,1-c][1,4]oxazepin-7-yl)-1H-pyrazol-1-yl)acetonitrile]	81.41
CC(=O)Nc1ccc2c(c1)OCc1cc(-c3ccccc3NC(C)=O)nn1C2 [Example 105]	70.78
CC(C)(C)Nc1ccc2c(c1)OCc1cc(-c3ccccc3)nn1C2 [Example 38]	81.48
CC(=O)Nc1ccc2c(c1)OCc1cc(-c3ccnc(NC(C)=O)c3)nn1C2 [Example 102]	85.50
CC(=O)Nc1ccc2c(c1)OCc1cc(-c3ccc(S(=O)(=O)N4CCN(C)CC4)cc3)nn1C2 [Example 96]	82.37
Clc1cc(Nc2ccc3c(c2)OCc2cc(-c4ccccc4)nn2C3)[nH]n1 [Example 27]	54.56
N#C[C@H]1C[C@H](Nc2ccc3c(c2)OCc2cc(-c4ccccc4)nn2C3)C1 [Example 29]	87.44
CC(=O)Nc1ccc2c(c1)OCc1cc(-c3cc[nH]n3)nn1C2 [Example 57]	87.44
c1ccc(-c2cc3n(n2)Cc2ccc(-c4cnn5cccnc45)cc2OC3)cc1 [Example 14]	83.04
Cn1cc(Nc2ccc3c(c2)OCc2cc(-c4ccccc4)nn2C3)c(Cl)n1 [Example 31]	85.26

SMILES	5 uM (% NETosis) [%]
CC(=O)Nc1ccc2c(c1)OCc1cc(-c3ccc(S(=O)(=O)N4CCOCC4)cc3)nn1C2 [Example 95]	85.90
CC(=O)Nc1ccc2c(c1)OCc1cc(-c3cnn(CCN(C)C)c3)nn1C2 [Example 92]	81.09
CC(=O)Nc1ccc2c(c1)OCc1cc(-c3cccc4c3CN(C)C4)nn1C2 [Example 89]	84.44
Cc1cn[nH]c1Nc1ccc2c(c1)OCc1cc(-c3ccccc3)nn1C2 [Example 35]	73.98
CC(=O)Nc1ccc2c(c1)OCc1cc(-c3ccnn3C3CC3)nn1C2 [Example 60]	63.78
Cn1cc(Nc2ccc3c(c2)OCc2cc(-c4ccccc4)nn2C3)c(C#N)n1 [Example 34]	80.80
c1ccc(-c2cc3n(n2)Cc2ccc(NC4COC4)cc2OC3)cc1 [Example 30]	84.70
CC(=O)Nc1ccc2c(c1)OCc1cc(-c3c(F)cccc3F)nn1C2 [Example 48]	42.40
c1ccc(-c2cc3n(n2)Cc2ccc(NC4CCCC4)cc2OC3)cc1 [Example 21, N-cyclopentyl-2-phenyl-4H,10H-benzo[f]pyrazolo[5,1-c][1,4]oxazepin-7-amine]	86.47
CC(=O)Nc1ccc2c(c1)OCc1cc(-c3cccc(F)c3)nn1C2 [Example 56]	35.77
Cn1cc(C#N)c(Nc2ccc3c(c2)OCc2cc(-c4ccccc4)nn2C3)n1 [Example 18]	79.81
CC(=O)Nc1ccc2c(c1)OCc1cc(-c3cccc(CC#N)c3)nn1C2 [Example 47]	62.82
CNS(=O)(=O)c1ccccc1-c1cc2n(n1)Cc1ccc(NC(C)=O)cc1OC2 [Example 97]	81.93
COc1cncc(-c2cc3n(n2)Cc2ccc(NC(C)=O)cc2OC3)c1 [Example 71]	69.95
CC(=O)Nc1ccc2c(c1)OCc1cc(-c3cn[nH]c3C)nn1C2 [Example 66]	84.91
CC(=O)Nc1ccc2c(c1)OCc1cc(-c3ccnc(C#N)c3)nn1C2 [Example 69]	66.18
CC(=O)Nc1ccc2c(c1)OCc1cc(-c3cnc4[nH]ccc4c3)nn1C2 [Example 63]	80.04
CC(=O)Nc1ccc2c(c1)OCc1cc(-c3ccc(C(=O)N4CCOCC4)cc3)nn1C2 [Example 106]	86.21
CC(=O)Nc1ccc2c(c1)OCc1cc(-c3cccc4[nH]c(=O)[nH]c34)nn1C2 [Example 86]	84.35
CC(=O)Nc1ccc2c(c1)OCc1cc(-c3c(O)cccc3F)nn1C2 [Example 49]	42.24
CC(=O)Nc1ccc2c(c1)OCc1cc(-c3c(C)cnn3C)nn1C2 [Example 59]	66.88
CC(=O)Nc1ccc2c(c1)OCc1cc(-c3cccc(S(C)(=O)=O)c3)nn1C2 [Example 80]	46.95

SMILES	5 uM (% NETosis) [%]
OCC1(Nc2ccc3c(c2)OCc2cc(-c4ccccc4)nn2C3)CC1 [Example 42]	82.57
CC(=O)Nc1ccc2c(c1)OCc1cc(-c3ccc(N(C)C(C)=O)cc3)nn1C2 [Example 82]	77.67
CC(=O)Nc1ccc2c(c1)OCc1cc(-c3cnccc3C#N)nn1C2 [Example 72]	80.10
c1ccc(-c2cc3n(n2)Cc2ccc(-c4cncs4)cc2OC3)cc1 [Example 16]	80.91
CC(=O)Nc1ccc2c(c1)OCc1cc(-c3cccc(C#N)n3)nn1C2 [Example 78]	58.91
CC(=O)Nc1ccc2c(c1)OCc1cc(-c3cccc(N(C)C(C)=O)c3)nn1C2 [Example 103]	75.39
COc1ccncc1-c1cc2n(n1)Cc1ccc(NC(C)=O)cc1OC2 [Example 70]	78.10
CC(=O)Nc1ccc2c(c1)OCc1cc(-c3cnco3)nn1C2 [Example 52]	66.03
COc1cnccc1-c1cc2n(n1)Cc1ccc(NC(C)=O)cc1OC2 [Example 61]	78.57
CC(=O)Nc1ccc2c(c1)OCc1cc(-c3cccc(C(=O)N(C)C)c3)nn1C2 [Example 100]	85.05
c1ccc(-c2cc3n(n2)Cc2ccc(-c4cnc5n4CCCC5)cc2OC3)cc1 [Example 13]	80.46
CC(=O)Nc1ccc2c(c1)OCc1cc(-c3ccc(F)cc3O)nn1C2 [Example 51]	57.20
Oc1cc(Nc2ccc3c(c2)OCc2cc(-c4ccccc4)nn2C3)[nH]n1 [Example 22]	79.55
CCc1n[nH]c(Nc2ccc3c(c2)OCc2cc(-c4ccccc4)nn2C3)c1Cl [Example 24]	81.55
CSc1ccccc1-c1cc2n(n1)Cc1ccc(NC(C)=O)cc1OC2 [Example 43]	49.48
CC(=O)Nc1ccc2c(c1)OCc1cc(-c3ccc(F)cc3CO)nn1C2 [Example 46, N-(2-(4-fluoro-2-(hydroxymethyl)phenyl)-4H,10H-benzo[f]pyrazolo[5,1-c][1,4]oxazepin-7-yl)acetamide]	51.25
c1ccc(-c2cc3n(n2)Cc2ccc(-c4cnc5ncccn45)cc2OC3)cc1 [Example 15]	77.26
c1ccc(-c2cc3n(n2)Cc2ccc(NC4CC4)cc2OC3)cc1 [Example 26]	78.70
CC(=O)Nc1ccc2c(c1)OCc1cc(-c3cncn3C)nn1C2 [Example 53]	57.77
CC(=O)Nc1ccc2c(c1)OCc1cc(-c3c(C)n[nH]c3C)nn1C2 [Example 75]	85.26
COc1cc(-c2cc3n(n2)Cc2ccc(NC(C)=O)cc2OC3)c(OC)nn1 [Example 85]	74.51
